These are literature values, as cited in US20130004575A1, “CONTROLLED RELEASE FORMULATIONS USING INTELLIGENT POLYMERS” (VALEANT INTERNATIONAL (BARBADOS) SRL, priority 1997, published 2013).

For the data set the following is noted: room temperature.

`CC1(C)O[C@@H]2[C@@H](CO[C@@]3(COS(N)(=O)=O)OC(C)(C)O[C@@H]23)O1` [topiramate, 2,3:4,5-bis-O-(1-methylethylidene)-β-D-fructopyranose sulfamate]: the “solubility of topiramate in water” value is on record as “about 9.8 mg/mL”.
